Patent publication US20210077420A1, “Methods of Treatment of Gout” (priority 2017, published 2021)
Values belong to the molecule of their own block, whether it stands above or below them.

Assays:
Format in all cases: physicochemical
[1] = Solubility enhancement of MSU crystals in phosphate buffered saline (Examples 2A, 2B); conditions: Table 3
[2] = as above
Method: A phosphate buffered saline diluent was prepared by dissolving 8.2 g of NaCl and 0.68 g of KH2PO4 in 500 mL of deionised water in a 1 L flask. An NaOH solution was prepared by dissolving 0.399 g of NaOH in 100 mL of deionised water. 39.1 mL of the 0.1 M NaOH solution was then added to the 1 L flask and the volume was made up to 1 L with deionised water. The pH was adjusted to 7.4.
Approximately 5 mg of monosodium urate crystals was then suspended in 4.75 mL of the phosphate buffered saline diluent. A 0.25 mL amount of a solubility enhancer was then added to the suspension of monosodium urate crystals. […] In the case of the solubility enhancer being a mix of components, equal portions by volume of each component was added, unless indicated otherwise. This was then stirred for about 16 hours.
A sample of the supernatant was then taken, filtered using standard techniques (e.g. a syringe filter), and analysed by high-performance liquid chromatography (HPLC) to determine the concentration of uric acid/urate present in solution.

[3] = Solubility enhancement of MSU crystals in aqueous NaCl solution (Example 1); conditions: 16 h; for Concentration of urate: 2.5 mL enhancer + 2.5 mL NaCl solution (8.2 g/L), about 8 mg MSU, 25 °C, mixes equal portions by volume, control 0.043; for % vs control: 2.5 mL enhancer + 2.5 mL NaCl solution, control (water only) = 100%
Method: A NaCl solution was prepared by dissolving 8.2 g of NaCl in 1 L of deionised water. Approximately 8 mg of monosodium urate crystals was then suspended in 2.5 mL of the NaCl solution. A 2.5 mL amount of a solubility enhancer was then added to the suspension of monosodium urate crystals. In the case of the solubility enhancer being a mix of components, equal portions by volume of each component was added. This was then mixed for about 16 hours on a roller mixer.
A sample of the supernatant was then taken, filtered using standard techniques (e.g. a syringe filter), and analysed by high-performance liquid chromatography (HPLC) to determine the concentration uric acid/MSU present in solution.
All samples were analysed using a HPLC system equipped with a variable wavelength UV detector and a reversed phase column (5 μm ODS2, 4.6 mm×150 mm, Waters Spherisorb). The mobile phase was 35 mM sodium acetate in water with pH adjusted to 5.0 using acetic acid. The flow rate was set at 1 mL/min and UV detection at a wavelength of 292 nm. Sample injection volume was 50.0 μL and all operations were carried out at 25° C. Standard solutions of MSU were made up in the range of 15-250 μg/mL and analysed as above.

[4] = 0.1% solubility enhancer in PBS
[5] = Table 3, 5% by volume solubility enhancer in PBS
[6] = Table 2, 5% by volume solubility enhancer in PBS pH 7.4, control = 100%

- % vs control [2, 6]: 119%
Molecule: CCCCCCCC/C=C\CCCCCCCC(=O)OC [Methyl oleate]

- Concentration of urate [3]: 65 µg/mL
- % vs control [3]: 151%
Molecule: Sorbitan monooleate

- % vs control [3]: 114%
- % vs control [2, 6]: 114%
Molecule: CC(O)CO (centres unmarked) [Propylene glycol]

- % vs control [3]: 149%
- % vs control [2, 6]: 114%
Molecule: OCC(O)CO [Glycerol]

- % vs control ([1]; 1% solubility enhancer in PBS): 118%
- % vs control ([1]; 2% solubility enhancer in PBS): 119%
Molecule: CCCCCCCC/C=C\CCCCCCCC(=O)O [Oleic acid]

- % vs control [3]: 151%
Molecule: O=C(O)/C=C/C(=O)O [Fumaric acid]

- % vs control ([1]; 0.5% solubility enhancer in PBS): 152%
- % vs control ([1]; 2% solubility enhancer in PBS): 170%
- % vs control ([1]; 3% solubility enhancer in PBS): 197%
- % vs control ([1]; 4% solubility enhancer in PBS): 227%
- % vs control [2, 6]: 263%
Molecule: OCc1ccccc1 [Benzyl alcohol]

- % vs control [3]: 200%
Molecule: CN1CCCC1=O [N-methylpyrrolidone]

- Concentration of urate [3]: 57 µg/mL
Molecule: Span 85

Further lines, the molecule ahead of its results:

Molecule: O=C(O)c1ccc(O)cc1 [4-hydroxybenzoic acid]
- % vs control ([1]; 0.05% solubility enhancer in PBS): 160%
- % vs control [1, 4]: 193%
- % vs control ([1]; 1% solubility enhancer in PBS): 205%
- % vs control [2, 5]: 241%

Molecule: CC(=O)OCC(COC(C)=O)OC(C)=O [Triacetin]
- % vs control ([1]; 4% solubility enhancer in PBS): 111%
- % vs control [2, 6]: 165%
- % vs control [2, 5]: 113%

Molecule: O=C(O)c1ccccc1 [Benzoic acid]
- % vs control [1, 4]: 147%
- % vs control ([1]; 1% solubility enhancer in PBS): 159%
- % vs control [2, 5]: 189%

Molecule: CC(=O)OC/C=C(\C)CCC=C(C)C [Geranyl acetate]
- % vs control [3]: 209%

Molecule: OCc1ccc(O)cc1 [4-hydroxybenzyl alcohol]
- % vs control ([1]; 1% solubility enhancer in PBS): 151%
- % vs control [2, 5]: 190%

Molecule: OCCO [Ethylene glycol]
- % vs control [2, 6]: 112%

Molecule: O=C(O)c1ccccc1O [Salicylic acid]
- % vs control [1, 4]: 281%
